This passage reports Activity and fold change (FC) results from ChEMBL document CHEMBL4184288, “Marine bis-γ-pyrone polypropionates of onchidione family and their effects on the XBP1 gene expression” (Bioorg Med Chem Lett, 2018).

SMILES strings stand for the structures. Active and inactive are the calls of the source. No cut-off for these calls is given here.

The species entered for experiment [1] is Mus musculus. Put plainly: Activation of XBP1 mRNA splicing in tunicamycin-stimulated mouse B16F10 cells harboring XBP1-DBD-luc treated 24 hrs post tunicamycin measured after 8 hrs by luciferase reporter gene assay relative to control. Background: Reporter assays use an easily measured gene product as a stand-in for the process of interest.
The species entered for experiment [2] is Mus musculus. Put plainly: Activation of XBP1 mRNA splicing in tunicamycin-stimulated mouse B16F10 cells harboring XBP1-DBD-luc at 10 ug/ml treated 24 hrs post tunicamycin measured after 8 hrs by luciferase reporter gene assay relative to control.
For experiment [3], the species on record is Mus musculus. Put plainly: Activation of XBP1 mRNA splicing in tunicamycin-stimulated mouse B16F10 cells harboring XBP1-DBD-luc at 1 ug/ml after 8 hrs by luciferase reporter gene assay relative to control.

With `CCC(=O)O[C@@H](CC)[C@H](C)c1oc([C@H](C)[C@@H]2O[C@](O)([C@@H](C)c3oc(CC)c(C)c(=O)c3C)[C@@H](C)[C@@H](OC(=O)CC(C)C)[C@@H]2C)c(C)c(=O)c1C`, the outcome in the experiment listed under Mus musculus [1] was inactive.

In the experiment listed under Mus musculus [2], `CCC(=O)[C@H](C)c1oc([C@H](C)[C@@H]2O[C@](O)([C@@H](C)c3oc(CC)c(C)c(=O)c3C)[C@@H](C)[C@@H](OC(=O)CC(C)C)[C@@H]2C)c(C)c(=O)c1C` had an Activity of 210% and a fold change (FC) of 2.

`CCCCCCCCCCCCC/C=C/C(=O)N[C@H]1[C@H](O[C@H]2O[C@H](CO)[C@@H](O)[C@H](O)[C@H]2NC(C)=O)O[C@H](CC(O)[C@H]2O[C@@H](n3ccc(=O)[nH]c3=O)[C@H](O)[C@@H]2O)[C@H](O)[C@@H]1O` (some centres undefined): in the experiment filed under Mus musculus [3], the Activity came to 178%.

In the experiment listed under Mus musculus [2], `CCC(=O)[C@@H](C)c1oc([C@H](C)[C@@H]2O[C@](O)([C@@H](C)c3oc(CC)c(C)c(=O)c3C)[C@@H](C)[C@@H](OC(=O)CC(C)C)[C@@H]2C)c(C)c(=O)c1C` registered an Activity of 218% and a fold change (FC) of 2.

Take `CCc1oc([C@H](C)[C@@]2(O)O[C@@H]([C@@H](C)c3oc([C@@H](C)[C@H](CC)OC(C)=O)c(C)c(=O)c3C)[C@@H](C)[C@H](OC(=O)CC(C)C)[C@@H]2C)c(C)c(=O)c1C`: in the experiment listed under Mus musculus [2], the Activity came out at 234% and the fold change (FC) is 2.

In the case of `CCc1oc([C@H](C)[C@@]2(O)O[C@@H]([C@@H](C)c3oc([C@@H](C)[C@@H](O)CC)c(C)c(=O)c3C)[C@@H](C)[C@H](OC(=O)CC(C)C)[C@@H]2C)c(C)c(=O)c1C`, the result in the experiment listed under Mus musculus [1] was inactive.
